Patent US20240360174A1, “CELL-PENETRATING PEPTIDE SEQUENCES” (Ohio State Innovation Foundation, priority 2016, published 2024)
Square brackets hold non-standard residues; d marks the D form. Phe(4-F) = N[C@@H](Cc1ccc(F)cc1)C(=O)O; 2Nal = N[C@@H](Cc1ccc2ccccc2c1)C(=O)O; d2Nal = N[C@H](Cc1ccc2ccccc2c1)C(=O)O; Pip = O=C(O)[C@@H]1CCCCN1

System: HeLa cells
Assay: Cellular uptake / cytosolic delivery efficiency of NF-labelled peptides by flow cytometry
Type: cell-based
Conditions: 2 h, 5 mM naphthofluorescein-labelled peptide, relative to CPP 1 (100%), mean ± S.D. of three independent experiments
Description: Absolute cytosolic delivery efficiency is the ratio of cytosolic concentration of a CPP (or a CPP-cargo conjugate) over the concentration of the CPP (or the CPP-cargo conjugate) in the growth medium. Relative cytosolic delivery efficiency refers to the concentration of a CPP in the cytosol compared to the concentration of a control CPP in the cytosol. Quantification can be achieved by fluorescently labeling the CPP (e.g., with a FTIC dye) and measuring the fluorescence intensity using techniques well-known in the art.
In particular embodiments, relative cytosolic delivery efficiency is determined by comparing (i) the amount of a CPP of the invention internalized by a cell type (e.g., HeLa cells) to (ii) the amount of the control CPP internalized by the same cell type. To measure relative cytosolic delivery efficiency, the cell type may be incubated in the presence of a cell-penetrating peptide of the invention for a specified period of time (e.g., 30 minutes, 1 hour, 2 hours, etc.) after which the amount of the CPP internalized by the cell is quantified using methods known in the art, e.g., fluorescence microscopy. Separately, the same concentration of the control CPP is incubated in the presence of the cell type over the same period of time, and the amount of the control CPP internalized by the cell is quantified.
To determine cellular uptake efficiency of the CPPs disclosed herein, HeLa cells were cultured in 12-well plates (1.5×10^5 cells per well) overnight. The cells were incubated for 2 h with […] naphthofluorescein (NF)-labelled peptide in cellular media. At the end of incubation, the cells were washed with DPBS twice, detached from the plate with 0.25% trypsin, diluted into clear DMEM, pelleted at 250 g for 5 min, washed twice with DPBS, resuspended in DPBS, and analyzed on a BD FACS LSR II flow cytometer. For NF-labelled peptides, a 633-nm laser was used for excitation and the fluorescence emission was analyzed in the APC channel. Absolute cellular uptake efficiency was determined by comparing the concentration (via fluorescence intensity) of the CPP in the cytosol to the concentration in the extracellular medium.

Substance: cyclo(Pip-Nal-phe-Arg-arg-arg-Glu) (cyclo([Pip][2Nal][dF]R[dR][dR]E); SMILES N=C(N)NCCC[C@@H]1NC(=O)[C@@H](Cc2ccccc2)NC(=O)[C@H](Cc2ccc3ccccc3c2)NC(=O)[C@@H]2CCCCN2C(=O)[C@H](CCC(=O)O)NC(=O)[C@@H](CCCNC(=N)N)NC(=O)[C@@H](CCCNC(=N)N)NC1=O) [Pin1 22]
- Relative Cytosolic Delivery Efficiency: 15 ± 6%

Substance: cyclo(Pip-Nal-phe-Arg-arg-arg-glu) (cyclo([Pip][2Nal][dF]R[dR][dR][dE]); SMILES N=C(N)NCCC[C@@H]1NC(=O)[C@@H](Cc2ccccc2)NC(=O)[C@H](Cc2ccc3ccccc3c2)NC(=O)[C@@H]2CCCCN2C(=O)[C@@H](CCC(=O)O)NC(=O)[C@@H](CCCNC(=N)N)NC(=O)[C@@H](CCCNC(=N)N)NC1=O) [Pin1 21]
- Relative Cytosolic Delivery Efficiency: 27 ± 15%

Substance: cyclo(RFFFRRRQ) (cyclic) [SAR 48]
- Relative Cytosolic Delivery Efficiency: 167 ± 10%

Substance: cyclo(RFFRFRQ) (cyclic) [SAR 43]
- Relative Cytosolic Delivery Efficiency: 96 ± 31%

Substance: cyclo(RFFRRRQ) (cyclic) [SAR 31]
- Relative Cytosolic Delivery Efficiency: 63 ± 19%

Substance: cyclo(RFFRRRRQ) (cyclic) [SAR 46]
- Relative Cytosolic Delivery Efficiency: 104 ± 5%

Substance: cyclo(RFRRFRQ) (cyclic) [SAR 32]
- Relative Cytosolic Delivery Efficiency: 94 ± 9%

Substance: cyclo(RRFFFRQ) (cyclic) [SAR 37]
- Relative Cytosolic Delivery Efficiency: 172 ± 24%

Substance: cyclo(RRFFFRRQ) (cyclic) [SAR 49]
- Relative Cytosolic Delivery Efficiency: 112 ± 20%

Substance: cyclo(RRFFRRRQ) (cyclic) [SAR 47]
- Relative Cytosolic Delivery Efficiency: 115 ± 20%

Substance: cyclo(XXRRRRQ) (cyclo([Phe(4-F)][Phe(4-F)]RRRRQ); SMILES N=C(N)NCCC[C@@H]1NC(=O)[C@H](CCCNC(=N)N)NC(=O)[C@H](CCCNC(=N)N)NC(=O)[C@H](Cc2ccc(F)cc2)NC(=O)[C@H](Cc2ccc(F)cc2)NC(=O)[C@H](CCC(N)=O)NC(=O)[C@H](CCCNC(=N)N)NC1=O) [SAR 56]
- Relative Cytosolic Delivery Efficiency: 165 ± 22%

Substance: cyclo(fFfRrRQ) (cyclo([dF]F[dF]R[dR]RQ); SMILES N=C(N)NCCC[C@@H]1NC(=O)[C@@H](CCCNC(=N)N)NC(=O)[C@H](CCCNC(=N)N)NC(=O)[C@@H](Cc2ccccc2)NC(=O)[C@H](Cc2ccccc2)NC(=O)[C@@H](Cc2ccccc2)NC(=O)[C@H](CCC(N)=O)NC1=O) [SAR 59]
- Relative Cytosolic Delivery Efficiency: 185 ± 91%

Substance: cyclo(fFfrRrQ) (cyclo([dF]F[dF][dR]R[dR]Q); SMILES N=C(N)NCCC[C@@H]1NC(=O)[C@@H](CCCNC(=N)N)NC(=O)[C@@H](Cc2ccccc2)NC(=O)[C@H](Cc2ccccc2)NC(=O)[C@@H](Cc2ccccc2)NC(=O)[C@H](CCC(N)=O)NC(=O)[C@@H](CCCNC(=N)N)NC1=O) [SAR 58]
- Relative Cytosolic Delivery Efficiency: 280 ± 106%

Substance: cyclo(fFΦrRrQ) (cyclo([dF]F[d2Nal][dR]R[dR]Q); SMILES N=C(N)NCCC[C@@H]1NC(=O)[C@@H](CCCNC(=N)N)NC(=O)[C@@H](Cc2ccc3ccccc3c2)NC(=O)[C@H](Cc2ccccc2)NC(=O)[C@@H](Cc2ccccc2)NC(=O)[C@H](CCC(N)=O)NC(=O)[C@@H](CCCNC(=N)N)NC1=O) [SAR 61]
- Relative Cytosolic Delivery Efficiency: 330 ± 101%

Substance: cyclo(fΦfrRrQ) (cyclo([dF][2Nal][dF][dR]R[dR]Q); SMILES N=C(N)NCCC[C@@H]1NC(=O)[C@@H](CCCNC(=N)N)NC(=O)[C@@H](Cc2ccccc2)NC(=O)[C@H](Cc2ccc3ccccc3c2)NC(=O)[C@@H](Cc2ccccc2)NC(=O)[C@H](CCC(N)=O)NC(=O)[C@@H](CCCNC(=N)N)NC1=O) [SAR 62]
- Relative Cytosolic Delivery Efficiency: 357 ± 59%

Substance: cyclo(fΦrRrQ) (cyclo([dF][2Nal][dR]R[dR]Q); SMILES N=C(N)NCCC[C@@H]1NC(=O)[C@@H](CCCNC(=N)N)NC(=O)[C@H](Cc2ccc3ccccc3c2)NC(=O)[C@@H](Cc2ccccc2)NC(=O)[C@H](CCC(N)=O)NC(=O)[C@@H](CCCNC(=N)N)NC1=O) [SAR 65]
- Relative Cytosolic Delivery Efficiency: 172 ± 37%

Substance: cyclo(ΦFfrRrQ) (cyclo([d2Nal]F[dF][dR]R[dR]Q); SMILES N=C(N)NCCC[C@@H]1NC(=O)[C@@H](CCCNC(=N)N)NC(=O)[C@@H](Cc2ccccc2)NC(=O)[C@H](Cc2ccccc2)NC(=O)[C@@H](Cc2ccc3ccccc3c2)NC(=O)[C@H](CCC(N)=O)NC(=O)[C@@H](CCCNC(=N)N)NC1=O) [SAR 63]
- Relative Cytosolic Delivery Efficiency: 50 ± 9%
